Key:
[1] = tested on: K562; experiment: DNA chip gene expression analysis, cell viability-related genes (Example 3); assay type: cell-based, human; conditions: 42°C 20 minutes then 37°C 30 minutes, HA4 10 ng/ml
Experimental: First, the K562 was incubated in Groups 1 and 2 in the […] described above. The both groups were incubated at 42°C for 20 minutes followed by 37°C for 30 minutes. The medium of Group 2 was supplemented with HA4 (10 ng/ml).
After the incubation, the medium was removed by centrifugation at 1000 rpm. The obtained cells were stored in a deep freezer at -60°C. From the cells thus stored, RNA was extracted according to a standard method. The extracted RNA was subjected to the DNA chip to analyze gene expressions. The DNA chip gene expression analysis was subtracted to DNA CHIP Research Inc. Specifically, the trade name: AceGene Human Oligo Chip 30K 1 Chip Version manufactured by DNACHIP Research Inc. was employed.

[2] = tested on: cerebrospinal tissue; experiment: DNA array analysis of cerebrospinal tissue of EAE model animals; assay type: in vivo, Lewis rats; conditions: Day 14, intrathecal continuous administration 6 µg/day immediately after inoculation of antigen
[3] = tested on: U937 cell; experiment: Cytokine production under LPS stimulation, cytokine antibody array; assay type: cell-based, human; conditions: LPS 100 ng/ml, HA4 100 ng/ml, 24 hours
Experimental: (§1) • 2. Cell: U937 cell (human monocyte line), purchased from Dainipon Sumitomo Seiyaku. • 3. Culture medium: RPMI medium (containing 10% FBS). • 4. LPS E.coli, 0111B4, Chemicon.
(§2) An U937 cell was disseminated in a 2 ml aliquot in a 6-well microplate at 5×10^5 cell/ml, supplemented with an LPS at a final concentration of 100 or 1000 ng/ml, and then incubated for 24 hours with 5% CO2 at 37°C in the presence or absence of HA4 (100 ng/ml) . The culture supernatant was centrifuged at 3000 rpm for 5 minutes to obtain a test substance. A 1 ml aliquot of the recovered supernatant was subjected to Human Cytokine Antibody array (Raybio) using an ELISA (ENDOGEN) to detect the production of various cytokines.
A 2 ml aliquot of a blocking buffer was added to a membrane blotted with an antibody, which was then shaken for 30 minutes. The blocking buffer was removed, and a 1 ml aliquot of the culture supernatant was added and shaken at room temperature for 2 hours, washed 5 times, and then admixed with a primary antibody solution. After agitating at room temperature for 1.5 hours followed by washing 5 times, a secondary antibody solution was added and agitated overnight at 4°C. After washing 5 times, a chemiluminescence was allowed to develop and photographed by a Polaroid. The photograph was scanned to obtain its digital data which were subjected to an Image J to measure the luminescent intensity. The ratio based on the luminescent intensity of an internal standard placed in 6 positions in the membrane was calculated. In addition, a relative level (%) based on the expression level in a non-treatment group (NT) being 100 was calculated.

[4] = Cytotoxicity (general statement); conditions: at a dose exhibiting a biological activity of a pharmaceutical
[5] = tested on: K562; experiment: DNA chip gene expression analysis, cytokine- and chemokine-associated genes (Example 4); assay type: cell-based, human; conditions: 42°C 20 minutes then 37°C 30 minutes, HA4 10 ng/ml
Experimental: Experimental method: First, the K562 was incubated in Groups 1 and 2 in the RPMI medium described above. The both groups were incubated at 42°C for 20 minutes followed by 37°C for 30 minutes. The medium of Group 2 was supplemented with HA4 (10 ng/ml).
After the incubation, the medium was removed by centrifugation at 1000 rpm. The obtained cells were stored in a deep freezer at -60°C. From the cells thus stored, RNA was extracted according to a standard method. The extracted RNA was subjected to the DNA chip to analyze the gene expression. The DNA chip gene expression analysis was subtracted to DNA CHIP Research Inc. Specifically, the trade name: AceGene Human Oligo Chip 30K 1 Chip Version manufactured by DNA CHIP Research Inc. was employed.

[6] = tested on: U937 cell; experiment: IL-6 production under LPS stimulation, ELISA; assay type: cell-based, human; conditions: LPS 100 ng/ml, HA4 100 ng/ml, 24 hours
Experimental: as §1, §2
To a microplate, 50 µl of a biotinylated antibody solution and 50 µl of the culture supernatant were added, and allowed to stand at room temperature for 2 hours. After washing with a washing buffer three times, 100 µl of a streptoavidin-HRP solution was added, allowed to stand at room temperature for 30 minutes, and washed with the washing buffer three times. A TMB was added, allowed to stand for at room temperature 30 minutes, and then a quencher was added to stop the reaction and the absorbance at 450 nm was measured (reference: 562 nm). The IL-6 concentration (pg/ml) was calculated based on the standard solutions measured in parallel.

[7] = tested on: K562; experiment: Cell viability by Rhodamine 123 staining after heat treatment; assay type: cell-based, human; conditions: 20 minutes at 43°C (heat treatment) followed by 60 minutes at 37°C, HA4 100 ng/ml
Experimental: In this example, effect of the inventive pharmaceutical agent on cell viability was measured using Rhodamine 123. […] Accordingly, the degree of the staining with Rhodamine 123 serves as an index of the mitochondrial activity, thus the index of the cellular activity (see, non-patent reference 2).
In this example, a K562 (referred to as human erythroleukemia cell or human erythroblastoid leukemia cell) was used. The K562 was purchased from RIKEN, Japan.
In this example relating to preparation of test substance, HA4 was prepared at 100 ng/ml. Specifically, HA4 was prepared by the method of Tawada et al. (Tawada A, Masa T, Oonuki Y, Watanabe A, Matsuzaki Y, Asari A. Large-scale preparation, purification and characterization of hyaluronan oligosaccharides from 4-mers to 52-mers. Glycobiology, 2002; 12(7):421-6) and the concentration was adjusted using a physiological saline.
First, the K562 was incubated under the condition described below. The culture medium for the K562 was an RPMI-1640 medium. In this example, the K562 was incubated in Groups 1 to 3 shown below. Each group was cultured under the condition described below. […]
The K562 after washing was inoculated at 1×10^4 cells/ml in a 96-well plate and a photograph was taken using a fluorescent microscope (Nikon) . The image was sent to anAdobe Photoshop (Adobe Systems) where the fluorescent intensity of a cell was measured.

[8] = tested on: experimental autoimmune encephalomyelitis (EAE); experiment: EAE (multiple sclerosis model) neural symptom evaluation after intraspinal administration; assay type: in vivo, Lewis rats; conditions: for clinical score (EAE grade): Day 13 after antigen inoculation
[9] = intraspinal continuous administration immediately after inoculation, 6 µg/day, 22 Days
[10] = intraspinal single administration after onset of disease, 60 µg

Substance: tetrasaccharide hyaluronan [HA4]
- HAA+/- ratio ([1]; gene Caspase 2): 0.27
- HAA+/- ratio ([1]; gene DNAJ2): 0.34
- HAA+/- ratio ([1]; gene Granzyme H): 0.38
- HAA+/- ratio ([1]; gene STK17b (DARK2)): 0.09
- HAA+/- ratio ([1]; gene TAF9L): 0.43
- HAA+/- ratio ([1]; gene dnaj (hsp40) homolog): 2.62
- HAA+/- ratio ([1]; gene pawr (Par-4)): 0.45
- Expression level ratio (HA/physiological saline) ([2]; Decoy TRAIL receptor without death domain): 2.0
- Expression level ratio (HA/physiological saline) ([2]; Fibroblast growth factor receptor substrate 2): 2.3
- Expression level ratio (HA/physiological saline) ([2]; Transthyretin): 0.38
- production of IL-1α [3]: reduction
- production of IL-1β [3]: reduction
- production of IL-6 [3]: reduction
- production of TGF-β [3]: reduction
- production of TNF-α [3]: reduction
- production of TNF-β [3]: reduction
- cytotoxicity [4]: almost or completely no cytotoxicity
- HA4(+)/HA4(-) ratio ([5]; gene CCL28): 0.32
- HA4(+)/HA4(-) ratio ([5]; gene IFN-γ): 0.11
- HA4(+)/HA4(-) ratio ([5]; gene IFN-ω1): 0.5
- HA4(+)/HA4(-) ratio ([5]; gene IL-1β): 0.36
- HA4(+)/HA4(-) ratio ([5]; gene IL-5): 0.28
- HA4(+)/HA4(-) ratio ([5]; gene IL-17b): 0.31
- HA4(+)/HA4(-) ratio ([5]; gene IL-18RAP): 0.32
- HA4(+)/HA4(-) ratio ([5]; gene Mig(CXCL9)): 0.11
- production of IL-6 [6]: reduction
- Rhodamine 123 staining performance (fluorescent intensity) [7]: inhibited such a reduction
- clinical score (EAE grade) ([8]; intraspinal continuous administration from onset of disease, 6 µg/day, 11 Days): 1.5 ± 1.0
- clinical score (EAE grade) [8, 9]: 0.2 ± 0.41
- clinical score (EAE grade) [8, 10]: 1.8 ± 0.5
- cases developing the disease [8, 9]: 1/6
- diseased period [8, 10]: 5.0 ± 1.5 days
